Test results taken from US5646316A, “Bile acid inhibitors of metalloproteinase enzymes” (OsteoArthritis Sciences, Inc., priority 1995, dated 1997).
Read-outs that look alike come from different tables or passages of the source.

Key:
[1] = molecular target: stromelysin (Homo sapiens, UniProt P08254); assay: Assay of Stromelysin Inhibition Activity (fluorogenic substrate hydrolysis); format: biochemical; details: for inhibition at 10 µM: read-out: percent inhibition of stromelysin
Experimental: (§1) Stromelysin was first activated by trypsin. This was done by preparing a reaction mixture in B-150 (B-150 consists of 150 mM NaCl, 20 mM Tris at pH 7.8 and 0.02% sodium azide) containing a final concentration of 4 μg/mL trypsin, 1.48 μg/mL of stromelysin, and 3.15 mM CaCl2. The reaction was incubated for 30 minutes at 37° C. and then quenched by adding soybean trypsin inhibitor to a final concentration of 43.6 μg/mL. ZnCl2 was added to the reaction mixture for a total concentration of 0.24 μM.
(§2) Following preparation of the solution of activated stromelysin, assay solutions were prepared for each inhibitor being tested. A control was also prepared. First, […] of activated stromelysin (about 45 μL from the solution of activated stromelysin) were aliquotted per assay tube. A 2.5 mM solution in 100% dimethyl sulfoxide (DMSO) was prepared for each inhibitor being tested and 1 μL from each inhibitor solution was added to one of the assay tubes. In addition, 1 μL of 100% DMSO was added to the control assay tube. All assay tubes were then pre-incubated for 5 minutes.
(§3) 5 μL of a previously prepared 50 μM solution of substrate in 15% DMSO were added to each assay tube. The substrate was a methoxycumarin developed by Knight et al. FEBS Lett. 296:263-66 (1992). The tubes were then incubated for 60 minutes, at which time the reaction was stopped with the addition of 750 μL of 0.1M NaAc pH 4.0 buffer.
(§4) Substrate hydrolysis was assessed by fluorescence using a slit width of 10:10, excitation at 328 nm and emission at 393 nm. The results of these assays are listed in Table I as percent inhibition at 10 μM of the bile acid provided compound tested or as the IC50.

[2] = test system: chondrocytes; assay: Chondrocyte Cell Culture Matrix Breakdown Assay (35S release, rhIL-1α stimulated); format: cell-based, calf; details: Bos taurus, Chondrocyte, read-out: percent inhibition, Cell Culture
Experimental: A cell culture assay was used to measure the ability of compounds to slow the degradation of the extracellular matrix by a metalloproteinase. This assay measured the amount ^35 S released from chondrocytes grown in a media with ^35 S labeled sodium sulfate. The cell culture assay was carried out as follows:
Two or three 1 to 3 week old calf joints were obtained from an abattoir. The proximal end of the shank was at about 4-5" long to facilitate immobilization in the holder. The joint was kept cool and transported on ice. The exterior of the intact joints was washed well with a suitable anti-microbial soap, rinsed clean with warm water, rinsed in betadine and then finally rinsed with 70% ethanol. Up to this point all steps were done in a manner to ensure that the joint was kept as clean as possible. All subsequent steps were performed in a sterile field (i.e., in a Edgeguard laminar flow tissue culture hood). The joint was immobilized and the synovial fluid was aspirated with a needle and syringe. The joint was then cut open to expose the articular cartilage using a #21 scalpel. Using locking hemostats, forceps and a #15 scalpel, the cartilage was excised in full thickness pieces. Care was taken not to cut too deep because bleeding would have occurred if the subchondral bone, was penetrated. The cartilage pieces were placed into a 50 mL centrifuge tube containing 25 mL of Delbecco's phosphate buffered saline (D-PBS) supplemented with 1% antibiotic solution (penicillin, streptomycin and fungizone; GIBCO/BRL). The slices from each joint were then placed into separate 50 mL centrifuge tubes. The D-PBS was decanted and replaced with 25 mL of fresh D-PBS supplemented with antibiotics and subsequently agitated gently.
The cartilage pieces were transferred to a fresh 50 mL centrifuge tube and rinsed once more with 25 mL of D-PBS minus antibiotics. An enzymatic digestion solution containing 1 mg/mL of hyaluronidase in serum-free 1:1 DMEM/Ham's F-12 (DMEM/F12) was prepared. This solution was filter sterilized with […] Milex--GV filter and kept on ice until ready to use. The cartilage pieces were digested with approximately 5 mL of hyaluronidase solution per joint for 2×15 minutes at 37° C. in the 50 mL centrifuge tube with gentle agitation at the 15 minute mark. This procedure removed residual hyaluronic acid from the surface of the chips. The enzymatic digestion solution was then aspirated and the cartilage pieces were rinsed with 25 mL of D-PBS.
A second enzymatic digestion solution containing 2.5 mg trypsin and 2 mg collagenase P per mL serum-free DMEM/F12 was prepared. This solution was also filter sterilized with a […] Millex--GV filter and kept on ice until ready to use. The cartilage pieces were digested with approximately 5 mL of trypsin: collagenase solution per joint for 2×15 minutes at 37° C. in the 50 mL centrifuge tube with gentle agitation at the 15 minute mark. This procedure removed the synovial fibroblasts and any adherent connective tissue from the surface of the chips. The enzymatic digestion solution was then carefully removed and saved and the cartilage pieces were rinsed with 25 mL of D-PBS.
A third enzymatic solution containing 2 mgs of collagenase P (BMB) per mL serum-free DMEM/F12 was prepared. This solution was filter sterilized with a […] Millex--GV filter and kept on ice until ready to use. The pre-digested cartilage pieces were finally digested with approximately 20 mL of enzymatic digestion solution per joint for 5-6 hours at 37° C. in a Bellco stirring digestion flask, at which point the cartilage was fully digested away.
The enzymes in the synovial fibroblast and chondrocyte digest were neutralized by addition of an equal volume of DMEM/F12 supplemented with 5% fetal bovine serum. Fibroblasts were plated in DMEM at a cellular density of 6.6×10^3 cells per cm^2. […]

[3] = test system: collagenase; assay: Assay of Collagenase Inhibition Activity; format: biochemical; details: at 10 μM of compound; 45 minutes at 37° C.
Experimental: as §1, §2, §3, §4
The assay procedure for collagenase was the same as described in Example 13 for stromelysin except that the trypsin activation was performed for 45 minutes. In addition, the incubation of the assay tubes at 37° C. was only for 45 minutes, and the final enzyme concentration is 6 nm. The results of these assays are provided in Table I as percent inhibition at 10 μM of the compound tested.

[4] = test system: bovine cartilage explants; assay: Bovine Cartilage Explant Assay (35S-GAG release, rhIL-1α stimulated; tissue culture); format: cell-based; details: Bos taurus; at 50 μM; rhIL-1α 5 ng/mL; 3-4 days; read-out: percent inhibition of extracellular matrix damage, Tissue Culture
Text: A tissue culture assay was used to measure the ability of the compounds of the present invention to slow the degradation of the extracellular matrix by metalloproteinases. This assay measured the amount of ^35 S-glycosaminoglycan (^35 S-GAG) released from labeled bovine cartilage explants.
Knee joints from a 1 to 3 week old calf were obtained immediately after sacrifice from the Abattoir and then transported on ice. The intact joints were washed well with tap water and soaked in 50% (v/v) Povidine iodine solution, obtained from Burre National, Inc., Baltimore, Md. All subsequent steps were performed in a laminar flow tissue culture hood using standard sterile technique. The joint was immobilized in a shank holder and the joint capsule was cut open to expose the articular cartilage. Cartilage explant plugs, approximately 15 mg wet weight, were removed from the flat articulating surfaces in the lower-most region of the knee joint using a sterile steel cork-borer and collected in a 250 mL roller bottle containing about 100 mL fresh Delbecco's minimum essential medium (DMEM), obtained from Gibco BRC, Life Technologies, Gaithersburg, Md., containing 4.5 g/1 (D)-glucose and (L)-glutamine, without sodium pyruvate. The fresh media also contained enough Hepes buffer and sodium bicarbonate such that the pH was about 7.4. The media was then further supplemented just before use with 100 units Penicillin, 100 μg Streptomycin, and 50 μg (L)-ascorbic acid per mL of medium.
Once collected, the explant plugs were washed four times with 50 mL fresh DMEM. The plugs were then placed in the incubator for a minimum of 1 hour to equilibrate, before proceeding to make disks from the articulating surface of each plug. A 1 mm thick disk was sliced from individual plugs from the end that was the articulating surface of the joint. The plug was held steady in the sterile template (4 mm diameter×1.5 mm deep) using sterile forceps. A scalpel blade was used to carefully slice off the disk. Only the superficial articulating surface responded well in culture.
Individual disks obtained were transferred to a tissue culture flask containing about 100 mL fresh media. The flask containing the disks was placed in an incubator at 37° C. (with 5% CO2, 95% air) and allowed to equilibrate overnight and at least one additional day before labeling. When ready to label, the old media was replaced with 50 mL fresh media containing about 500 μCi ^35 S-Sodium Sulfate. The plugs were labeled in bulk for about 48 hours. The next morning, the "hot" media was removed and replaced with fresh "cold" media. The disks were again allowed to equilibrate overnight before being used for actual experiments.
The media in which the disks were stored was changed immediately prior to performing the assay. The disks were then returned to the incubator until the test media and the two control media had been prepared. The test media consisted of a bile acid or bile acid derivative (50 μM) being tested for its ability to inhibit extracellular matrix degradation and concomitant recombinant human Interleukin rhIL-1α (5 ng/mL) in fresh DMEM solution. The control media were identical to the test media, except that the first control media lacked rhIL-1α and the second control media lacked an inhibitor, i.e. a bile acid or bile acid derivative. 250 μL of each of the test and control media were transferred to separate 96-well TC plates. Flamed forceps were used to transfer a disk from the incubator to each 96-well TC plates that had been filled with either the test media or one of the two control media.
The TC plates were then placed in the incubator and cultured for 3-4 days (initial incubation with rhIL-1α alpha takes at least 3 days to stimulate endogenous metalloproteinases). A 50 μL aliquot of media from each TC plate was saved and counted. The rest of the media was removed with a suction device.
The cartilage disks from each TC plate were also saved for counting. […]

[5] = at 50 μM, rhIL-1α 1 ng/ml, 22-24 hours

stromelysin, sequence (P08254 100-477): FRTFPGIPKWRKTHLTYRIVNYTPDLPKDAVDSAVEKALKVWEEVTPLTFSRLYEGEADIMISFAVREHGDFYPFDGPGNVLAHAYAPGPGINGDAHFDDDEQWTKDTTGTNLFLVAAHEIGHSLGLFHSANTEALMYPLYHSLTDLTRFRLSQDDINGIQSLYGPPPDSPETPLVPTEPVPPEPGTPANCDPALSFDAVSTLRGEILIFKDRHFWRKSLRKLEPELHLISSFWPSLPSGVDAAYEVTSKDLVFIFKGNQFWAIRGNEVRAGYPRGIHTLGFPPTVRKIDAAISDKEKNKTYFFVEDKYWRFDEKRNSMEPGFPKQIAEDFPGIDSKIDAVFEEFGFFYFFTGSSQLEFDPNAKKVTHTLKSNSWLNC

Row | SMILES | inhibition at 50 µM [2, 5] | inhibition at 10 µM ([1]; at 10 μM of compound) | further results
1 | C[C@H](CCC(=O)O)[C@H]1CC[C@H]2[C@@H]3CC[C@@H]4C[C@H](O)CC[C@]4(C)[C@H]3C[C@H](O)[C@]12C [Compound 2, deoxycholic acid, reference compound] | -14% |  | inhibition at 10 µM [1]: 23%
2 | C[C@H](CCC(=O)O)[C@H]1CC[C@H]2[C@@H]3[C@@H](O)C[C@@H]4C[C@H](O)CC[C@]4(C)[C@H]3CC[C@]12C [Compound 3, ursodeoxycholic acid, reference compound] | 5% | 21% | 
3 | C[C@H](CCC(=O)O)[C@H]1CC[C@H]2[C@@H]3C[C@H](O)[C@@H]4C[C@H](O)CC[C@]4(C)[C@H]3CC[C@]12C [Compound 4, hyodeoxycholic acid, reference compound] | 7% | 18% | 
4 | C[C@H](CCC(=O)NCCC[N+](C)(C)CC(O)CS(=O)(=O)[O-])[C@H]1CC[C@H]2[C@@H]3[C@H](O)C[C@@H]4C[C@H](O)CC[C@]4(C)[C@H]3C[C@H](O)[C@]12C (stereo partly drawn) [Compound 5, 3-[(3-cholamidopropyl)dimethylammonio]-2-hydroxy-1-propanesulfonate, reference compound] |  |  | inhibition at 10 µM [1]: 15%; inhibition at 50 µM [2]: 35%
5 | C[C@H](CCC(=O)O)[C@H]1CC[C@H]2[C@@H]3[C@H](O)C[C@@H]4C[C@H](O)CC[C@]4(C)[C@H]3CC[C@]12C [Compound 6, Chenodeoxycholic acid, reference compound] |  |  | percent inhibition of collagenase [3]: 6%; inhibition at 50 µM [4]: 23%
6 | C[C@H](CCC(=O)NO)[C@H]1CC[C@H]2[C@@H]3[C@H](O)C[C@@H]4C[C@H](O)CC[C@]4(C)[C@H]3CC[C@]12C [Compound 14, Chenodeoxycholyhydroxamic Acid] | 77% |  | percent inhibition of collagenase [3]: 19%
7 | C[C@H](CCC(=O)N[C@H](Cc1ccccc1)C(=O)NO)[C@H]1CC[C@H]2[C@@H]3CC[C@@H]4C[C@H](O)CC[C@]4(C)[C@H]3CC[C@]12C [Compound 22, Lithocholyl-(D)-Phenylalanine Hydroxamic Acid] | 5% |  | IC50 ([1]; 60 minutes incubation): 1200 nM
8 | C[C@H](CCC(=O)NO)[C@H]1CC[C@H]2[C@@H]3[C@H](O)C[C@@H]4C[C@H](O)CC[C@]4(C)[C@H]3C[C@H](O)[C@]12C [Compound 23, Cholylhydroxamic Acid] | -20% | 12% | 
9 | C[C@H](CCC(=O)N[C@@H](CCc1ccccc1)C(=O)NO)[C@H]1CC[C@H]2[C@@H]3CC[C@@H]4C[C@H](O)CC[C@]4(C)[C@H]3CC[C@]12C [Compound 27, Lithocholyl-(L)-homophenylalanine Hydroxamic Acid] |  | 90% | 
10 | C[C@H](CCC(=O)N[C@H](CCc1ccccc1)C(=O)NO)[C@H]1CC[C@H]2[C@@H]3CC[C@@H]4C[C@H](O)CC[C@]4(C)[C@H]3CC[C@]12C [Compound 28, Lithocholyl-(D)-homophenylalanine Hydroxamic Acid] |  | 92% | 
